Results as given in publication PMC7241536, “Design, synthesis and in vitro antiproliferative activity of new thiazolidinedione-1,3,4-oxadiazole hybrids as thymidylate synthase inhibitors” (Journal of Enzyme Inhibition and Medicinal Chemistry, 2020).
Read-outs that look alike come from different tables or passages of the source.

Tests used:
MCF-7 (breast cancer) = assay: MTT cytotoxicity assay, MCF-7; type: cell-based, human; conditions: for IC50: MTT, 72 h, breast cancer cell line MCF-7, read-out: IC50 against MCF-7; for folds activity of 5-FU against MCF-7: relative to 5-fluorouracil
Method: (§1) The methods are provided in Supplementary material.
(§2) The newly synthesised compounds 7–21 were tested for their cytotoxicity against human cancer cell line viz. breast and colorectal using MTT assay.
(§3) Two human cancer cell lines, MCF-7 and HCT-116 were cultured in Dulbecco’s Modified Eagles Medium (DMEM) high glucose medium which was supplemented with 10% fetal bovine serum (FBS), 10,000 units/mL penicillin/streptomycin (Pen/Strep) and 1% glutamine). The above cell lines were cultured in 75 cm2 flasks and maintained at 37 °C in an incubator humidified with 5% CO2. The cell culture was performed using aseptic techniques in a Class II […]
(§4) Breast MCF-7 and colorectal HCT-116 cancer cells were added at (1 × 10^5 cells/mL) into a 96 well plate with three replicates and incubated overnight for attachment at 37°C, in 5% CO2 humidified atmosphere. Drug concentrations at 6 serial dilutions (100, 50, 10, 1, 0.5 and 0.1 μM) were added in triplicates and incubated at 37°C, 5% CO2 for 72 h. Drugs were dissolved in 0.1 % DMSO as a vehicle. Untreated cells were used as control. 5-fluorouracil (5-FU) was used as a positive control. Thereafter, each well for each time point was removed and replaced with […] of full medium containing 10% of 3-(4,5- dimethylthiaxolyl-2)-2,5-diphenyltetrazoliumbromide (MTT) (10 mg/mL). Media was removed and 100µl of DMSO was added and cells were incubated for further 5 mins at 37 °C and 5% CO2. Plates were quantified using the SpectraMax M3 plate reader at 570 nm. The percentage inhibition was calculated as 100–[(Mean OD of treated cell × 100)/Mean OD of vehicle treated cells (DMSO)]. All the experiments were repeated at least three independent experiments. […]

[1] = tested on: HCT-116 (colorectal cancer); assay: MTT cytotoxicity assay, HCT-116; type: cell-based, human; conditions: for IC50: MTT, 72 h, colorectal cancer cell line HCT-116, read-out: IC50 against HCT-116; for folds cytotoxicity compared to 5-FU against HCT-116: relative to 5-fluorouracil
Method: as §1, §2, §3, §4

[2] = target: thymidylate synthase (TS) (Homo sapiens, UniProt P04818); assay: In vitro thymidylate synthase assay (spectrophotometric, 340 nm); type: biochemical
Chain of thymidylate synthase (TS) (P04818 whole entry): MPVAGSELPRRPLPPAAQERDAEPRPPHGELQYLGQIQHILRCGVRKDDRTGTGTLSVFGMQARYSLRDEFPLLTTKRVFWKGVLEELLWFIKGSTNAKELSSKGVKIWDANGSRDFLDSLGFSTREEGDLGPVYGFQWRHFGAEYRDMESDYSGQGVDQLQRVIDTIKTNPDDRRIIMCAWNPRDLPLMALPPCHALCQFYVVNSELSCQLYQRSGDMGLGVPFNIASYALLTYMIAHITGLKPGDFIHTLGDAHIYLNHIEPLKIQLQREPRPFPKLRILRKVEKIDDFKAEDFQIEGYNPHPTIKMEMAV
Method: TS activity was performed according to the method as described by Wahab and Friedkin[27] with a slight modification according to Santi.[28] (Refer to Supplementary material for the method.) […]
In vitro Thymidylate synthase assay
It involves a mixture containing 2-mercaptoethanol (0.1 M), (6R,S)-tetrahydrofolate (0.0003 M), formaldehyde (0.012 M), MgCl2 (0.02 M), dUMP (0.001 M), TrisHCl (0.04 M), and NaEDTA […]
(0.00075 M). This assay was done spectrophotometrically at 30° C and pH 7.4. The reaction was initiated by the addition of an amount of enzyme giving a change in absorbance at 340 nm of 0.016/min in the absence of inhibitor. The percent inhibition was determined at a minimum of four inhibitor concentrations within 20% of the 50% point. The standard deviations for […]

[3] = 30 °C, pH 7.4, read-out: TS inhibition IC50

SMILES	melting point	IC50 (MCF-7 (breast cancer); Homo sapiens, MCF7, 72 h)	IC50 ([1]; Homo sapiens, HCT-116, 72 h)	further results
COc1ccc(/C=C2\SC(=O)N(Cc3nnc(-c4cccc(C)c4)o3)C2=O)cc1 [Compound 15, (Z)-5-(4-methoxybenzylidene)-3-((5-m-tolyl-1,3,4-oxadiazol-2-yl)methyl)thiazolidine-2,4-dione]		47.8 µM	39.6 µM	IC50 [2, 3]: 7.9 µM
Nc1nc2[nH]cc(CCc3ccc(C(=O)N[C@@H](CCC(=O)O)C(=O)O)cc3)c2c(=O)[nH]1 [PTX, Pemetrexed, reference compound]				IC50 [2]: 8.2 µM
COc1ccc(/C=C2\SC(=O)N(Cc3nnc(-c4ccccc4O)o3)C2=O)cc1 [Compound 12, (Z)-5-(4-methoxybenzylidene)-3-((5-(2-hydroxyphenyl)-1,3,4-oxadiazol-2-yl)methyl)thiazol idine-2,4-dione]		56.3 µM	58.6 µM	
COc1ccc(/C=C2\SC(=O)N(Cc3nnc(-c4ccc(Br)cc4)o3)C2=O)cc1 [Compound 10, (Z)-5-(4-methoxybenzylidene)-3-((5-(4-bromophenyl)-1,3,4-oxadiazol-2-yl)methyl)thiazolidine-2,4-dione]		7.87 µM	16.1 µM	folds activity of 5-FU against MCF-7 (MCF-7 (breast cancer)): 4.4 folds; folds cytotoxicity compared to 5-FU against HCT-116 [1]: 2.5 folds; IC50 [2, 3]: 2.21 µM
COc1ccc(/C=C2\SC(=O)N(Cc3nnc(-c4cccc([N+](=O)[O-])c4)o3)C2=O)cc1 [Compound 14, (Z)-5-(4-methoxybenzylidene)-3-((5-(3-nitrophenyl)-1,3,4-oxadiazol-2-yl)methyl)thiazolidine-2,4-dione]		43.4 µM	42.2 µM	IC50 [1]: 42.2 µM; IC50 [2, 3]: 9.4 µM
COc1ccc(/C=C2\SC(=O)N(Cc3nnc(-c4ccc(C)cc4)o3)C2=O)cc1 [Compound 11, (Z)-5-(4-methoxybenzylidene)-3-((5-p-tolyl-1,3,4-oxadiazol-2-yl)methyl)thiazolidine-2,4-dione]	197 to 198 °C	58.4 µM	68.1 µM	
O=c1[nH]cc(F)c(=O)[nH]1 [Compound 5-FU, 5-fluorouracil, reference compound]		34.8 µM	40.5 µM	
COc1ccc(/C=C2\SC(=O)N(Cc3nnc(-c4ccccc4)o3)C2=O)cc1 [Compound 7, (Z)-5-(4-methoxybenzylidene)-3-((5-phenyl-1,3,4-oxadiazol-2-yl)methyl)thiazolidine-2,4-dione]		53.5 µM	57.3 µM	
COc1ccc(/C=C2\SC(=O)N(Cc3nnc(-c4ccccc4C)o3)C2=O)cc1 [Compound 13, (Z)-5-(4-methoxybenzylidene)-3-((5-o-tolyl-1,3,4-oxadiazol-2-yl)methyl)thiazolidine-2,4-dione]		56.3 µM	58.6 µM	
COc1ccc(/C=C2\SC(=O)N(Cc3nnc(-c4ccccc4Cl)o3)C2=O)cc1 [Compound 9, (Z)-5-(4-methoxybenzylidene)-3-((5-(2-chlorophenyl)-1,3,4-oxadiazol-2-yl)methyl)thiazolidine-2,4-dione]	276 to 277 °C	7.47 µM	12.8 µM	IC50 (MCF-7 (breast cancer)): 7.74 µM; folds activity of 5-FU against MCF-7 (MCF-7 (breast cancer)): 4.5 folds; folds cytotoxicity compared to 5-FU against HCT-116 [1]: 3.1 folds; IC50 [2, 3]: 1.67 µM
COc1ccc(/C=C2\SC(=O)N(Cc3nnc(-c4cccc(Cl)c4)o3)C2=O)cc1 [Compound 8, (Z)-5-(4-methoxybenzylidene)-3-((5-(3-chlorophenyl)-1,3,4-oxadiazol-2-yl)methyl)thiazolidine-2,4-dione]		56 µM	56.8 µM	

The next lines start with results.

melting point	SMILES	IC50 (MCF-7 (breast cancer); Homo sapiens, MCF7, 72 h)	IC50 ([1]; Homo sapiens, HCT-116, 72 h)	further results
152 to 153 °C	COc1ccc(/C=C2\SC(=O)N(Cc3nnc(COc4ccccc4)o3)C2=O)cc1 [Compound 16, (Z)-5-(4-methoxybenzylidene)-3-((5-(phenoxymethyl)-1,3,4-oxadiazol-2-yl)methyl)thiazolidine-2,4-dione]	58.4 µM	67.1 µM	
220 to 221 °C	COc1ccc(/C=C2\SC(=O)N(Cc3nnc(COc4cccc5ccccc45)o3)C2=O)cc1 [Compound 19, (Z)-5-(4-methoxybenzylidene)-3-((5-((naphthalen-1-yloxy)methyl)-1,3,4-oxadiazol-2-yl)methyl) thiazolidine-2,4-dione]	61.6 µM	69.5 µM	
142 to 143 °C	COc1ccc(/C=C2\SC(=O)N(Cc3nnc(COc4cccc(Cl)c4)o3)C2=O)cc1 [Compound 17, (Z)-3-((5-((3-chlorophenoxy)methyl)-1,3,4-oxadiazol-2-yl)methyl)-5-(4-methoxybenzylidene)thiazolidine-2,4-dione]	65.2 µM	55.5 µM	
210 to 211 °C	COc1ccc(/C=C2\SC(=O)N(Cc3nnc(COc4ccc5ccccc5c4)o3)C2=O)cc1 [Compound 20, (Z)-5-(4-methoxybenzylidene)-3-((5-((naphthalen-3-yloxy)methyl)-1,3,4-oxadiazol-2-yl)methyl) thiazolidine-2,4-dione]	> 100 µM	> 100 µM	
209 to 210 °C	COc1ccc(/C=C2\SC(=O)N(Cc3nnc(COc4cccc(Cl)c4Cl)o3)C2=O)cc1 [Compound 18, (Z)-3-((5-((2,3-dichlorophenoxy)methyl)-1,3,4-oxadiazol-2-yl)methyl)-5-(4-methoxybenzylidene)thiazolidine-2,4-dione]	> 100 µM	> 100 µM	
161 to 162 °C	COc1ccc(/C=C2\SC(=O)N(Cc3nnc(COc4cccc5cccnc45)o3)C2=O)cc1 [Compound 21, (Z)-5-(4-methoxybenzylidene)-3-((5-((quinolin-8-yloxy)methyl)-1,3,4-oxadiazol-2-yl)methyl) thiazolidine-2,4-dione]	62 µM	63.1 µM	
